In article PMC3940203, “Elements in nucleotide sensing and hydrolysis of the AAA+ disaggregation machine ClpB: a structure-based mechanistic dissection of a molecular motor” (Acta Crystallographica Section D: Biological Crystallography, 2014):
Each block holds one compound with its values, some of them ahead of it.

Key:
ClpB NBD2 [1] = target: T1, ClpB NBD2 (Thermus thermophilus, UniProt Q9RA63, R806A); test: stopped-flow FRET, displacement and competition with MANT-dADP, global fit; Kd = koff/kon; conditions: 50 mM Tris-HCl pH 7.5, 200 mM KCl, 5 mM MgCl2, 2 mM EDTA, 25 °C; read-out: Nucleotide binding / K d
T1 sequence (Q9RA63 520-854 R806A): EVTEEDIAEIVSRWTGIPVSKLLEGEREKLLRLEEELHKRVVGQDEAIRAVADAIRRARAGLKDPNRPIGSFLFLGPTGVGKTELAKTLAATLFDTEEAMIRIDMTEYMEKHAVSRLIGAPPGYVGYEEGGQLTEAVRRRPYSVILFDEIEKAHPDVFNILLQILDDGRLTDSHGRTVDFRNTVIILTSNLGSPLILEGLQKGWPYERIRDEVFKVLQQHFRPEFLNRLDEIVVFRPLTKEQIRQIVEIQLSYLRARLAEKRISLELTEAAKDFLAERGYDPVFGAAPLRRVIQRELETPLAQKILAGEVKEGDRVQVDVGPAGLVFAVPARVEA
Description: (§1) stopped-flow FRET, displacement and competition with MANT-dADP, global fit; Kd = koff/kon on ClpB NBD2

ClpB NBD2 [2] = target: T2, ClpB NBD2 (Thermus thermophilus, UniProt Q9RA63, R621Q); test: as above; conditions: 50 mM Tris-HCl pH 7.5, 200 mM KCl, 5 mM MgCl2, 2 mM EDTA, 25 °C; read-out: Nucleotide binding / K d
T2 sequence (Q9RA63 520-854 R621Q): as the sequence (Q9RA63 520-854 R806A) above, with R102Q, A287R counted along it
Description: as §1

ClpB NBD2 [3] = target: T3, ClpB NBD2 (Thermus thermophilus, UniProt Q9RA63); test: X-ray crystal structure, […] Å; format: binding; conditions: co-crystal with 2 mM ADP, pH 7.0; nucleotide site of NBD2, no Mg2+ bound
T3 sequence (Q9RA63 520-854): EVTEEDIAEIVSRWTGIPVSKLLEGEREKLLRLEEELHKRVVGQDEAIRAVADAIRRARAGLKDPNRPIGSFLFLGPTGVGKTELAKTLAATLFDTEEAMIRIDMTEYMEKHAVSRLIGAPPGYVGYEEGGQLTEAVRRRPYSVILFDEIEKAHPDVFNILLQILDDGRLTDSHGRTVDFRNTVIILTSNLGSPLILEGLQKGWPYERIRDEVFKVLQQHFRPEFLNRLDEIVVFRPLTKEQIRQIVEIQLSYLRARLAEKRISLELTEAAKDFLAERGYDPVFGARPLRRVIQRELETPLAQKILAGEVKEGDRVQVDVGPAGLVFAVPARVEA

ClpB NBD2 [4] = target: T4, ClpB NBD2 (Thermus thermophilus, UniProt Q9RA63, N709A); test: stopped-flow FRET, displacement and competition with MANT-dADP, global fit; Kd = koff/kon; format: binding; conditions: 50 mM Tris-HCl pH 7.5, 200 mM KCl, 5 mM MgCl2, 2 mM EDTA, 25 °C
T4 sequence (Q9RA63 520-854 N709A): as the sequence (Q9RA63 520-854 R806A) above, with N190A, A287R counted along it
Description: as §1

ClpB NBD2 [5] = target: T3, ClpB NBD2; test: X-ray crystal structure, […] Å; format: binding; conditions: co-crystal with 2 mM AMPPCP, pH 7.0; nucleotide site of NBD2, no Mg2+ bound
ClpB NBD2 [6] = target: T4, ClpB NBD2; test: stopped-flow FRET, competition and displacement with MANT-dADP, global fit; Kd = koff/kon; conditions: 50 mM Tris-HCl pH 7.5, 200 mM KCl, 5 mM MgCl2, 2 mM EDTA, 25 °C; ATP-regenerating system (pyruvate kinase, phosphoenolpyruvate); read-out: Nucleotide binding / K d
Description: (§2) stopped-flow FRET, competition and displacement with MANT-dADP, global fit; Kd = koff/kon on ClpB NBD2

ClpB NBD2 [7] = target: T1, ClpB NBD2; test: as above; conditions: 50 mM Tris-HCl pH 7.5, 200 mM KCl, 5 mM MgCl2, 2 mM EDTA, 25 °C; ATP-regenerating system (pyruvate kinase, phosphoenolpyruvate); read-out: Nucleotide binding / K d
Description: as §2

ClpB NBD2 [8] = target: T2, ClpB NBD2; test: as above; conditions: 50 mM Tris-HCl pH 7.5, 200 mM KCl, 5 mM MgCl2, 2 mM EDTA, 25 °C; ATP-regenerating system (pyruvate kinase, phosphoenolpyruvate); read-out: Nucleotide binding / K d
Description: as §2

ClpB NBD2 [9] = target: T4, ClpB NBD2; test: stopped-flow FRET, direct mixing and displacement, global fit; Kd = koff/kon; format: binding; conditions: 50 mM Tris-HCl pH 7.5, 200 mM KCl, 5 mM MgCl2, 2 mM EDTA, 25 °C; labelled compound
Description: (§3) stopped-flow FRET, direct mixing and displacement, global fit; Kd = koff/kon on ClpB NBD2

ClpB NBD2 [10] = target: T1, ClpB NBD2; test: as above; format: binding; conditions: 50 mM Tris-HCl pH 7.5, 200 mM KCl, 5 mM MgCl2, 2 mM EDTA, 25 °C; labelled compound
Description: as §3

ClpB NBD2 [11] = target: T2, ClpB NBD2; test: as above; format: binding; conditions: 50 mM Tris-HCl pH 7.5, 200 mM KCl, 5 mM MgCl2, 2 mM EDTA, 25 °C; labelled compound
Description: as §3

SMILES: Nc1ncnc2c1ncn2[C@@H]1O[C@H](COP(=O)(O)OP(=O)(O)O)[C@@H](O)[C@H]1O [ADP]
Kd (ClpB NBD2 [1]): 3.8 ± 0.06 µM
Kd (ClpB NBD2 [2]): 1.5 ± 0.02 µM
X-ray crystal structure, 2.4 Å (ClpB NBD2 [3]): Wild-type ClpB NBD2 in complex with ADP, PDB entry 4lj5
Nucleotide binding / K d (μM) (ClpB NBD2 [4]): 0.43 ± 8 × 10^−3 µM

SMILES: Nc1ncnc2c1ncn2[C@@H]1O[C@H](COP(=O)(O)OP(=O)(O)CP(=O)(O)O)[C@@H](O)[C@H]1O [AMPPCP]
X-ray crystal structure, 1.9 Å (ClpB NBD2 [5]): Wild-type ClpB NBD2 in complex with AMPPCP, PDB entry 4lj6

SMILES: CNc1ccccc1C(=O)O[C@H]1C[C@H](n2cnc3c(N)ncnc32)O[C@@H]1COP(=O)(O)OP(=O)(O)O [MANT-dADP]
Nucleotide binding / K d (μM) (ClpB NBD2 [9]): 0.0024 ± 3 × 10^−5 µM
Nucleotide binding / K d (μM) (ClpB NBD2 [10]): 0.027 ± 1 × 10^−4 µM
Nucleotide binding / K d (μM) (ClpB NBD2 [11]): 0.0068 ± 8 × 10^−5 µM

Further lines, results first:

Kd (ClpB NBD2 [6]): 74 ± 3 µM
Kd (ClpB NBD2 [7]): 84 ± 4 µM
Kd (ClpB NBD2 [8]): 55 ± 2 µM
SMILES: Nc1ncnc2c1ncn2[C@@H]1O[C@H](COP(=O)(O)OP(=O)(O)OP(=O)(O)O)[C@@H](O)[C@H]1O [ATP]

Nucleotide binding / K d (μM) (ClpB NBD2 [10]): 0.29 ± 2 × 10^−3 µM
SMILES: CNc1ccccc1C(=O)O[C@H]1C[C@H](n2cnc3c(N)ncnc32)O[C@@H]1COP(=O)(O)OP(=O)(O)OP(=O)(O)O [MANT-dATP]
